Data: ChEMBL document CHEMBL5465560, “Selectivity Literature for EUbOPEN Chemogenomic Library” (2024)
Values belong to the compound of their own block, whether it stands above or below them.

How the values were obtained:
[1] = target: Tyrosine-protein kinase JAK1 (Homo sapiens, UniProt P23458); experiment: Selectivity interaction (KinomeScan (DiscoverX)) EUB0001868a JAK1; settings: at 1 µM
[2] = target: T1, Ephrin type-A receptor 3 (Homo sapiens) (UniProt P29320); experiment: Selectivity interaction (KinomeScan (DiscoverX)) EUB0001049a EPHA3; settings: at 1 µM
T1 sequence (whole entry): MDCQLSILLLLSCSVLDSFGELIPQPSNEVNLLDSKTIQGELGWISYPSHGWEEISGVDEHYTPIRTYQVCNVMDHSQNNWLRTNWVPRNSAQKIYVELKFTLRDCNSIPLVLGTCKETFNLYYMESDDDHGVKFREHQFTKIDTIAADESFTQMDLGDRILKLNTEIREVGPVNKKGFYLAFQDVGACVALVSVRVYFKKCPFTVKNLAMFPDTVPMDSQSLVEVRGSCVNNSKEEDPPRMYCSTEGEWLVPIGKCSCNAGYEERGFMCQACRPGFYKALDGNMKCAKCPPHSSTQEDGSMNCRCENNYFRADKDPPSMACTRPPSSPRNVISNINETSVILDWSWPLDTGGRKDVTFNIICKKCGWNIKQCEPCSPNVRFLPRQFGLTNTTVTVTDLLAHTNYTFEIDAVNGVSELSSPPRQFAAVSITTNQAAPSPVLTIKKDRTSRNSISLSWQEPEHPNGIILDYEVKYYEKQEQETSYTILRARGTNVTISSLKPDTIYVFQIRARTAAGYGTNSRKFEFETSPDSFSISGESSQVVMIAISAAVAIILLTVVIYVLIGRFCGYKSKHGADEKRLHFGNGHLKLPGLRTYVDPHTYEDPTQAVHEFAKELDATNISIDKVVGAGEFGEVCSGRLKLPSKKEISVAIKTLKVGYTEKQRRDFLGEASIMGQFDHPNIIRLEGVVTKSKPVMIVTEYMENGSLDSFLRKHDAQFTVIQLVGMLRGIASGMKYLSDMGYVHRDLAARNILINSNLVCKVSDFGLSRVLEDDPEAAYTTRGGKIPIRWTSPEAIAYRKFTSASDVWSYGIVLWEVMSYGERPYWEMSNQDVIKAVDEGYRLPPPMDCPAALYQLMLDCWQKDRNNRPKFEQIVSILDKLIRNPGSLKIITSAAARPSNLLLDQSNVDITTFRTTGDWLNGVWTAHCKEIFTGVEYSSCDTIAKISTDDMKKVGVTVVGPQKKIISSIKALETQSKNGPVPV

[3] = target: T2, Cyclin-G-associated kinase (Homo sapiens) (UniProt O14976); experiment: Selectivity interaction (KinomeScan (DiscoverX)) EUB0001049a GAK; settings: at 1 µM
T2 sequence (whole entry): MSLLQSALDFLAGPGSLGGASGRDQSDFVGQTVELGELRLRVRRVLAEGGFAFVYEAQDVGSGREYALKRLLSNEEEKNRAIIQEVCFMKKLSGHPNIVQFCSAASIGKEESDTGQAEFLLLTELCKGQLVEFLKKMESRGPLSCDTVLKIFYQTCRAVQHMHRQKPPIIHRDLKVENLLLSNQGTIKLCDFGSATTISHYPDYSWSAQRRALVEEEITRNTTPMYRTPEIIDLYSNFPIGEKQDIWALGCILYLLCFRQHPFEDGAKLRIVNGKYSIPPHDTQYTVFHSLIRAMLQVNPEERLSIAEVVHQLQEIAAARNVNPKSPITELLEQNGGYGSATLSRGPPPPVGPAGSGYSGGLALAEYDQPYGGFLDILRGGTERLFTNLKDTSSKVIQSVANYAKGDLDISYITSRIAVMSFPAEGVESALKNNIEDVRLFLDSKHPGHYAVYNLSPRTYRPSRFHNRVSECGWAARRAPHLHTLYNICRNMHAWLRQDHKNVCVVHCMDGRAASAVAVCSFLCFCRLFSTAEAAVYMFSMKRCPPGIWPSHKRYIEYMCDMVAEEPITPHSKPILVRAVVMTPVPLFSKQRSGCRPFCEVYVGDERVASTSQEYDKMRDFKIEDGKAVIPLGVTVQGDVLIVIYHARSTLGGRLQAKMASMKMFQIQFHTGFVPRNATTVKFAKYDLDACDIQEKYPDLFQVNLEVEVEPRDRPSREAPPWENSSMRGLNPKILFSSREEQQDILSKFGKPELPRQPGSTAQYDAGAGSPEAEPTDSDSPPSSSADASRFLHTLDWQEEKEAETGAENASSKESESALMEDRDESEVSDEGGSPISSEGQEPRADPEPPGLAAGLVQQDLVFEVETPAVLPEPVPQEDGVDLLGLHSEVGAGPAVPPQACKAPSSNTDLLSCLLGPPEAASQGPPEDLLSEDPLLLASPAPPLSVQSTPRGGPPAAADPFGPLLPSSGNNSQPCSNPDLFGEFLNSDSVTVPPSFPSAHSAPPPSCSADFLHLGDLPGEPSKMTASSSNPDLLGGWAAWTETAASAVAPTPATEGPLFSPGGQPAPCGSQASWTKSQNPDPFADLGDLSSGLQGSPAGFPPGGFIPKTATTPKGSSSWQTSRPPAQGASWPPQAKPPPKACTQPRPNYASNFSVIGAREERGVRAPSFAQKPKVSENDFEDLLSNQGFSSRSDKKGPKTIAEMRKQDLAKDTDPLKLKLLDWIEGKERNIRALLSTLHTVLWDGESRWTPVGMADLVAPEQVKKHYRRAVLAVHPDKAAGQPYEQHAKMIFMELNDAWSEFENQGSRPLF

[4] = target: Proto-oncogene tyrosine-protein kinase receptor Ret (Homo sapiens, UniProt P07949); experiment: Selectivity interaction (Millipore kinase profiler) EUB0000124b RET; settings: at 10 µM
Proto-oncogene tyrosine-protein kinase receptor Ret, sequence (P07949 whole entry): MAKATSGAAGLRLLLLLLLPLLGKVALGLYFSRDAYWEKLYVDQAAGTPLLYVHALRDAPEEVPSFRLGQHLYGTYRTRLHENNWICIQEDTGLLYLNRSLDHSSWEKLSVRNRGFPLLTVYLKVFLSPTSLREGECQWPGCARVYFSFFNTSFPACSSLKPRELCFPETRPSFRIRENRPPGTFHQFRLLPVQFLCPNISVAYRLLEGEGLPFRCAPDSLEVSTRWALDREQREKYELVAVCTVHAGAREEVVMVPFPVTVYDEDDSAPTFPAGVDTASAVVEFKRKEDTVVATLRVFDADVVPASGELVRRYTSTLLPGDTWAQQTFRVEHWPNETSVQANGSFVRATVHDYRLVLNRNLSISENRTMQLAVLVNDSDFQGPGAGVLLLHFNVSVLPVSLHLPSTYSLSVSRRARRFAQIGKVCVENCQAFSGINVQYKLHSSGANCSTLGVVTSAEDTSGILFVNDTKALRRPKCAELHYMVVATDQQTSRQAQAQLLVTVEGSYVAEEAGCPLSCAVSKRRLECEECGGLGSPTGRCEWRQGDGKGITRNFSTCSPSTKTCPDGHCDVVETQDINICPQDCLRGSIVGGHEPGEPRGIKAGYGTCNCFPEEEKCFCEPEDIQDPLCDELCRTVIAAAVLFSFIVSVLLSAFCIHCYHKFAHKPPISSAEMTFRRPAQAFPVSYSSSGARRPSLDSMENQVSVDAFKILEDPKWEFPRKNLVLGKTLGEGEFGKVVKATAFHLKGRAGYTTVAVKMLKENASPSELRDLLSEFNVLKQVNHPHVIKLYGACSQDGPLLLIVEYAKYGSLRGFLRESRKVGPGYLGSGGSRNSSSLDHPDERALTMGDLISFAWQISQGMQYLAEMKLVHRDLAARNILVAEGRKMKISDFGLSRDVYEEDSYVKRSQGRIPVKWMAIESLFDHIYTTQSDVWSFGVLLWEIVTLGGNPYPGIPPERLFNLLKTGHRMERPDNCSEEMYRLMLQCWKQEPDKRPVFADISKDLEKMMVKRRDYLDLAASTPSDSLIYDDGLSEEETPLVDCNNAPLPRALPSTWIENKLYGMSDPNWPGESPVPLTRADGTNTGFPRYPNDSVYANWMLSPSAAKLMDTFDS

[5] = target: Serine/threonine-protein kinase B-raf (Homo sapiens) (UniProt P15056); experiment: (§1) Selectivity interaction (Ambit KINOMEscan and KiNATiv profiling in Jurkat cells) EUB0000090b BRAF; type: cell-based; settings: at 1 µM
Serine/threonine-protein kinase B-raf (Homo sapiens), sequence (P15056 whole entry): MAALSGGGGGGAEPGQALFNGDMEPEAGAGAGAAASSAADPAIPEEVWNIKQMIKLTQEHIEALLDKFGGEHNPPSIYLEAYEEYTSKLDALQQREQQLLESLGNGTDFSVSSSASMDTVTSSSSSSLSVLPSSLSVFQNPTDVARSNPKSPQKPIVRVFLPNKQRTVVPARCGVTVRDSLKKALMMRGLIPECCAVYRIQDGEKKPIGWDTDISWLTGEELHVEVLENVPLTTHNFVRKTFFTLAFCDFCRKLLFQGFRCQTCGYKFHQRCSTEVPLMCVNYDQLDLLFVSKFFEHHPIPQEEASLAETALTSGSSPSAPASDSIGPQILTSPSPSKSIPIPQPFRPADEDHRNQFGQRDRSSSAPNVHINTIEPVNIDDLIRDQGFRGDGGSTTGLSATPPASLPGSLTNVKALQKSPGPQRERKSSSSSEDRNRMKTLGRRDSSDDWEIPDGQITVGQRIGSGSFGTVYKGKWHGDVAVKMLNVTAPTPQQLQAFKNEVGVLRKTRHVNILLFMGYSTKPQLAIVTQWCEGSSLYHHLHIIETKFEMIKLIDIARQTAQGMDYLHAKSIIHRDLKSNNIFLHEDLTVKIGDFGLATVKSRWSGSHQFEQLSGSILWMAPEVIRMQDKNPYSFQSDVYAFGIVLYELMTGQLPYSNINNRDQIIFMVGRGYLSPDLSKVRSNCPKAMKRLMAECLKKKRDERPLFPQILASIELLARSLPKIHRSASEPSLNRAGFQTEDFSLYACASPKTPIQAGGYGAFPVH

[6] = test system: Serine/threonine-protein kinase B-raf (Homo sapiens), P15056 [V600E]; experiment: as §1; type: cell-based; settings: at 1 µM
Serine/threonine-protein kinase B-raf (Homo sapiens), P15056 [V600E], sequence (P15056 whole entry V600E): as the sequence (P15056 whole entry) above, with V600E counted along it

[7] = target: T3, Phosphatidylinositol 5-phosphate 4-kinase type-2 gamma (Homo sapiens) (UniProt Q8TBX8); experiment: Selectivity interaction (KinomeScan (DiscoverX)) EUB0000229b PIP4K2C; settings: at 10 µM
T3 sequence (whole entry): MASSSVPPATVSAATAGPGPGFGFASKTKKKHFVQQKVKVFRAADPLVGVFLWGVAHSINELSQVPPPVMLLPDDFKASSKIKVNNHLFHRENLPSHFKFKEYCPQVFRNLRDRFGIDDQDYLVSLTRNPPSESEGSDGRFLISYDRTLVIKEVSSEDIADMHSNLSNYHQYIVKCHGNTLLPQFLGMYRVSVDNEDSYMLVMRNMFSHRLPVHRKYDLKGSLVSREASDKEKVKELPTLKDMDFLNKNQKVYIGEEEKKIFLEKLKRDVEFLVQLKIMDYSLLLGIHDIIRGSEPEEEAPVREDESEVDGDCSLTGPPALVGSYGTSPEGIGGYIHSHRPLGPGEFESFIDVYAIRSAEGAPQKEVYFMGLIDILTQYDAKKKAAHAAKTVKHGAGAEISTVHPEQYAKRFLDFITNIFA

Tyrosine-protein kinase JAK1, sequence (P23458 whole entry): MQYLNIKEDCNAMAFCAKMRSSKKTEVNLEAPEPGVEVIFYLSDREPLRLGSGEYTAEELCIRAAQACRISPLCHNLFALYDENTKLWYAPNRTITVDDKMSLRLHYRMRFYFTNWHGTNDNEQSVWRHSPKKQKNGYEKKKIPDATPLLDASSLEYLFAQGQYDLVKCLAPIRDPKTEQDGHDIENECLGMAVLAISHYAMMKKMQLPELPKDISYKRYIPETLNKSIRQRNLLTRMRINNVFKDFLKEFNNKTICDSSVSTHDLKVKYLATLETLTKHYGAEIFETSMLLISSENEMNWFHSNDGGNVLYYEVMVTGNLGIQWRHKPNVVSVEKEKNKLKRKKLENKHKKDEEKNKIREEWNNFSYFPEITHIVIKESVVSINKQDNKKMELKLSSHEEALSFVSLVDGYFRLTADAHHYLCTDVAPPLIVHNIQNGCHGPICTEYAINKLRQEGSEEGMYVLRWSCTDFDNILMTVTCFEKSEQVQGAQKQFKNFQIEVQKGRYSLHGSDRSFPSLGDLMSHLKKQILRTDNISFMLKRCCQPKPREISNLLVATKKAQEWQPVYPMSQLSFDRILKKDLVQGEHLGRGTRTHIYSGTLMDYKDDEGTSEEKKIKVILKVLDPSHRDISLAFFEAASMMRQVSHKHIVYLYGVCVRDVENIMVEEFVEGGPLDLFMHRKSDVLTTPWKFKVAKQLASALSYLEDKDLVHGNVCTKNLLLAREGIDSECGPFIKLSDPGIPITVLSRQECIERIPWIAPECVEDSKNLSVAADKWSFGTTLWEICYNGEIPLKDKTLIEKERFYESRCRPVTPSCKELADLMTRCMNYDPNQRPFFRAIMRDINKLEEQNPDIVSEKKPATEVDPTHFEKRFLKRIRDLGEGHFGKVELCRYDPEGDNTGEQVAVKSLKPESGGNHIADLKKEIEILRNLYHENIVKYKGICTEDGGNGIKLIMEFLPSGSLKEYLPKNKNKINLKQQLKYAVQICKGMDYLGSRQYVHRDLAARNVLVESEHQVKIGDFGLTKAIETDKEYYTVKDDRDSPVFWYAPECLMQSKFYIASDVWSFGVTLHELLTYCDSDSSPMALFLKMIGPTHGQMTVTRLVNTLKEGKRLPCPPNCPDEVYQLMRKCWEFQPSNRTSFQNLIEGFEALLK

% of control [1]: 29%
Structure (SMILES): Cc1cc(-c2ccnc(Nc3cnn(C)c3)n2)ccc1CNC(=O)N1CC(OC(C)C)C1

Structure (SMILES): COc1cc(Nc2nc(C)cc(-c3cnn4nc(OC)ccc34)n2)cc(C(F)(F)F)c1
% of control [2]: 80%
% of control [3]: 87%

% of control [4]: 109%
Structure (SMILES): CC(=O)Nc1cccc(-n2c(=O)n(C3CC3)c(=O)c3c(Nc4ccc(I)cc4F)n(C)c(=O)c(C)c32)c1

Structure (SMILES): CN(C)C/C=C/C(=O)Nc1ccc(C(=O)N2CCCC(Nc3ncc(Cl)c(-c4c[nH]c5ccccc45)n3)C2)cc1 (configuration not stated)
% of control [5]: 98%
% of control [6]: 100%

Structure (SMILES): COc1cc(N(C)c2ccnc3ccc(C(F)(F)F)cc23)cc(OC)c1OC
% binding [7]: 38%
